We go through 1 compound from patent US11472812B2, “Anti-cancer compounds targeting Ral GTPases and methods of using the same” (The Regents of the University of Colorado, a body corporate, priority 2014, dated 2022).

Entries after “also recorded” stand apart in the source; their conditions may differ.

Data set [1] has as its system H2122 human lung cancer cells. Kind of data set: H2122 xenograft tumor growth. In kind it is in vivo, nude mice. The settings on record: i.p. daily except weekends, initiated 24 h after inoculation; RBC8 50 mg/kg/d; BQU57 and BQU85 5, 10, 20, and 50 mg/kg/d. How it is done: We next determined compound entry into tumor tissue. To do so, athymic nude mice (Ncr nu/nu; National Cancer Institute, Fredrick, Md.) were received at 5 to 6 weeks of age and were allowed to acclimate for 2 weeks in sterile micro isolator cages with constant temperature and humidity. Mice had free access to food and water. H2122 cells in log-phase growth were harvested on the day of use. Cells were suspended in un-supplemented RPMI 1640 medium and 0.1 mL (2×10^5 cells) was injected s.c. four sites per mice. For H358 xenografts, cells (5×10^6) were mixed with matrigel (20% final concentration) and 0.1 mL was inoculated s.c. per site. After cell inoculation, mice were monitored daily, weighed twice weekly and caliper measurements begun when tumors visible. Tumor volume was calculated by (L×W2)/2, where L is longer measurement of tumor and W is the smaller tumor measurement. Drug treatment started the day after inoculation. Compounds were dissolved in DMSO and injected i.p. daily except weekends at 10/20/50 mg/kg. […] The effect of the Ral inhibitors on xenograft tumor growth was then tested in nude mice. Mice were inoculated subcutaneously with H2122 human lung cancer cells and treated intraperitoneally with 50 mg/kg/d (except weekends) of RBC8 24 h post inoculation.

Data set [2] concerns H2122 human lung cancer cells. Briefly: Cellular uptake, LC/MS-MS of cell lysates. In kind it is in vitro ADME. Particulars: 10 μM, 1-60 min. The procedure: To quantitate how well the test compounds get into cells, H2122 human lung cancer cells were seeded at 3×10^5 cells per well in 6-well plates and let sit for 16 h. Compounds (10 μM) were individually dosed in triplicate; cells were then collected into 500 μl ice-cold ACN:MeOH:H2O (1:1:1) at different time points (1, 5, 15, 30 and 60 min). Drug concentrations in cell lysates were then determined using LC/MS-MS methods as described with respect to the pharmacokinetic and pharmacodynamic studies in mice, described in detail in Example 5, below.

As for `Cn1nc(-c2ccccc2)c2c1OC(N)=C(C#N)C2c1ccc(OC(F)(F)F)cc1` (centres unmarked) [BQU85, 6-amino-1-methyl-3-phenyl-4-(4-(trifluoromethoxy)phenyl)-1,4-dihydropyrano[2,3-c]pyrazole-5-carbonitrile], the “xenograft tumor growth inhibition” value in data set [1] is given as “dose-dependent growth inhibition effects were observed; also recorded: inhibited xenograft tumor growth”. Further, the cellular uptake result in data set [2] is reported as “readily get into cells”.
